We go through four compounds from US7026527B2, “Plant methionine synthase gene and methods for increasing the methionine content of the seeds of plants” (priority 1995, dated 2006).

Molecules are shown by their SMILES. A value given as a limit tells only on which side of the number the result lay.

For assay [1], the system named is E. coli strain Gif106M1 transformed with pBT436. The assay is classed as cell-based. Particulars: M9 media with arginine, isoleucine, ampicillin. From the text: To establish that the cloned lysC gene was functional, pBT436 was transformed into E. coli strain Gif106M1 (E. coli Genetic Stock Center strain CGSC-5074) which has mutations in each of the three E. coli AK genes [Theze et al., J. Bacteriol., (1974), 117, 133-143|. This strain lacks all AK activity and therefore requires diaminopimelate (a precursor to lysine which is also essential for cell wall biosynthesis), threonine and methionine.
M9 media [see Sambrook et al. (1989) Molecular Cloning: A Laboratory Manual, Cold Spring Harbor Laboratory Press| supplemented with the arginine and isoleucine, required for Gif106M1 growth, and ampicillin, to maintain selection for the pBT436 plasmid, was used. […] This property of pBT436-transforned Gif106M1 was used to select for mutations in lysC that encoded lysine-insensitive AKIII.

Assay [2] has as its target T1, wild type AKIII (Escherichia coli, UniProt P08660, G401A).
T1 construct: made in house; host or cells: E. coli Gif106M1 (lacks all AK activity) transformed with pBT436
The experiment in a line: Lysine inhibition of wild type AKIII aspartokinase activity. The assay is classed as biochemical, E. coli. The following applies: read-out: inhibition of AKIII. On the procedure: (§1) Single colonies of Gif106M1 transformed with pBT436 were picked and resuspended in 200 μL of a mixture of 100 μL 1% lysine plus 100 μL of M9 media. The entire cell suspension containing 10^7-10^8 cells was spread on a petri dish containing M9 media supplemented with the arginine, isoleucine, and ampicillin. Sixteen petri dishes were thus prepared. From 1 to 20 colonies appeared on 11 of the 16 petri dishes. One or two (if available) colonies were picked and retested for lysine resistance and from this nine lysine-resistant clones were obtained. Plasmid DNA was prepared from eight of these and re-transformed into Gif106M1 to determine whether the lysine resistance determinant was plasmid-borne. Six of the eight plasmid DNAs yielded lysine-resistant colonies. Three of these six carried lysC genes encoding AKIII that was uninhibited by 15 mM lysine, whereas wild type AKIII is 50% inhibited by 0.3-0.4 mM lysine and >90% inhibited by 1 mM lysine.
(§2) Assay mix (for 12×1.0 mL or 48×0.25 mL assays): • 2.5 mL H2O • 2.0 mL 4M KOH • 2.0 mL 4M NH2OH—HCl • 1.0 mL 1M Tris-HCl pH 8.0 • 0.5 mL 0.2M ATP (121 mg/ml in 0.2M NaOH) • 50 μL 1M MgSO4
(§3) Each 1.5 mL eppendorf assay tube contains:
(§4) Assay tubes are incubated at 30° C. for 30-60 min […];
(§5) Spin for 2 min in eppendorf centrifuge tube. Read OD at […].

Assay [3] addresses T2, wild type AKIII (Escherichia coli, UniProt P08660).
T2 construct: made in house; host or cells: E. coli Gif106M1 (lacks all AK activity) transformed with pBT436
The description is as above. It counts as biochemical, E. coli. The method, then: as §1, §2, §3, §4, §5

In assay [4] the target is T3, AKII-HDHII (HDH activity) (Escherichia coli, UniProt P00562).
T3 construct: The primers also add a Kpn I site immediately following the translation stop codon; made in house; host or cells: E. coli BL21(DE3), pBT430-derived T7 vector; supernatant of sonicated cells (clone 5, plasmid pBT718)
T3 sequence (P00562 other isoform, or with tags, fused parts or gaps): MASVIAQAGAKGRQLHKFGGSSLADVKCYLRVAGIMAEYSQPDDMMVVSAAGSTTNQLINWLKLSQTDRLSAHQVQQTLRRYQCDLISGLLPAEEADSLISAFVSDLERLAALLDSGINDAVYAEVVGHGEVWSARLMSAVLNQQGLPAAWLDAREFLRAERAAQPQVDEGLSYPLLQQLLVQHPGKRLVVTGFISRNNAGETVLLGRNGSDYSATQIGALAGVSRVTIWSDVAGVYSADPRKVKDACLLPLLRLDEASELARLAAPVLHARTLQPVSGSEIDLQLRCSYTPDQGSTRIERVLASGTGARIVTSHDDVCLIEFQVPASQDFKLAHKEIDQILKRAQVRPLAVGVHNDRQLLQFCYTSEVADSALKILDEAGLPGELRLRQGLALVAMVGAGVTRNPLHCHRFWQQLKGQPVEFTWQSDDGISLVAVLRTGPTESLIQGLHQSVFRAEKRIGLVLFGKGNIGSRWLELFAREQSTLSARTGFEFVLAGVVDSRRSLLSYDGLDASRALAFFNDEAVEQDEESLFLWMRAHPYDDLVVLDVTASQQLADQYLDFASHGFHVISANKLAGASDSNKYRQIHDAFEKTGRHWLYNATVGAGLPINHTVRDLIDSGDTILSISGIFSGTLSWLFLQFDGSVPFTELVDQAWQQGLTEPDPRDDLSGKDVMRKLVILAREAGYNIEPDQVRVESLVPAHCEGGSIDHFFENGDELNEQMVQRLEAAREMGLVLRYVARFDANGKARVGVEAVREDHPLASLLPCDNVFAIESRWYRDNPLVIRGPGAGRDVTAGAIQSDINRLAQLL
The assay can be described thus: HDH activity of AKII-HDHII extract (clone 5), inhibition by pathway end-products. It counts as biochemical, E. coli. Particulars: 30 mM end-product; extract from clone 5.
Protocol: The cells were collected by centririgation and resuspended in 1/25th the original culture volume in 50 mM NaCl; 50 mM Tris-Cl, pH 7.5; 1 mM EDTA, and frozen at −20° C., thawed at 37° C. and sonicated, in an ice-water bath, to lyse the cells. The lysate was centrifuged at 4° C. for 5 min at 12,000 rpm. The supernatant was removed and the pellet was resuspended in the above buffer. The supernatant fractions were assayed for HDH enzyme activities to identify clones expressing functional proteins. HDH activity was assayed as shown below: HDH ASSAY
Make Mixture of above reagents with amounts multiplied by number of assays. Use 0.9 mL of mix for 1 mL assay; 180 μL of mix for 0.2 mL assay in microtiter dish
to ½ the assay mix; remaining ½ lacks ASA to serve as blank
Add enzyme extract last to start reaction. Incubate at ˜30° C.; monitor NADPH oxidation at 340 nM. 1 unit oxidizes 1 μmol NADPH/min at 30° C. in the 1 mL reaction.

In assay [5] the target is T4, AKIII encoded by mutant lysC genes (lysine-insensitive) (Escherichia coli, UniProt P08660, G401A/T352I).
T4 construct: made in house; host or cells: E. coli Gif106M1 carrying mutated pBT436 plasmids
T4 sequence (P08660 2-449 T352I/G401A): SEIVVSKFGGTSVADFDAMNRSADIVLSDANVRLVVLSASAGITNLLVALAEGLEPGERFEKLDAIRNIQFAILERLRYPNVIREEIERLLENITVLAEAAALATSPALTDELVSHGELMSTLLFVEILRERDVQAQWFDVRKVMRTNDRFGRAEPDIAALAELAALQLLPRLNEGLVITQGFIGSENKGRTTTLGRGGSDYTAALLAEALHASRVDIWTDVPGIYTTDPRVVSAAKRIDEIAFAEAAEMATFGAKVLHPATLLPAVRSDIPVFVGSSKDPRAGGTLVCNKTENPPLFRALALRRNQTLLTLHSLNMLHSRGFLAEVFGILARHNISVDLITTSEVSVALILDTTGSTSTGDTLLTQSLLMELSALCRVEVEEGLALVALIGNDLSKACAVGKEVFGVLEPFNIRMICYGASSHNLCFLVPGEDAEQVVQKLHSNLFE
It counts as biochemical, E. coli. The following applies: 15 mM lysine; three mutant lysC genes (M2, M3, M4). On the procedure:
as §1
The sequences of the three mutant lysC genes that encoded lysine-insensitive AK each differed from the wild type sequence by a single nucleotide, resulting in a single amino acid substitution in the protein. […] Thus, either of these single amino acid substitutions is sufficient to render the AKIII enzyme insensitive to lysine inhibition. […]
as §5

For the next assay, the target named is T5, AKII-HDHII (AK activity) (Escherichia coli, UniProt P00562).
T5 construct: The primers also add a Kpn I site immediately following the translation stop codon; made in house; host or cells: E. coli BL21(DE3), pBT430-derived T7 vector; supernatant of sonicated cells (clone 5, plasmid pBT718)
T5 sequence (P00562 other isoform, or with tags, fused parts or gaps): as the sequence (P00562 other isoform, or with tags, fused parts or gaps) above
The experiment in a line: AK activity of AKII-HDHII extract (clone 5), inhibition by pathway end-products. It counts as biochemical, E. coli. The following applies: 30 mM end-product; extract from clone 5. The method, then: These four were then assayed for AK activity. AK activity was assayed as shown below:
as §2
pH of assay mix should be 7-8
as §3, §4, §5
Two extracts also had high levels of AK enzyme activity. These two extracts were then tested for inhibition of AK or HDH activity by the pathway end-products, lys, thr and met.

T2 sequence (P08660 2-449 G401A): as the sequence (P08660 2-449 T352I/G401A) above, with I351T counted along it
T1 sequence (P08660 2-449 G401A): as the sequence (P08660 2-449 T352I/G401A) above, with I351T counted along it

`NC(CCCC(N)C(=O)O)C(=O)O` (centres unmarked) [diaminopimelate]: in assay [1], the “concentration in growth medium that inhibits growth” value was “approximately 0.2 mM”.

Turning to `NCCCC[C@H](N)C(=O)O` [lysine], the inhibition at 1000 µM at wild type AKIII [2] is above 90%. The compound also gave an IC50 on wild type AKIII [3] of 300 to 400 µM. Further, in assay [4], the “inhibition of HDH activity” value is listed as “Neither the AK nor the HDH activity of the extract from clone 5 was inhibited”. Besides, in assay [1], the “concentration in growth medium that inhibits growth” value is given as “approximately 0.2 mM”. The “inhibition of mutant AKIII” value in assay [5] was “uninhibited”. Further, on AKII-HDHII (AK activity), the “inhibition of AK activity” value is “Neither the AK nor the HDH activity of the extract from clone 5 was inhibited”.

Turning to `CSCC[C@H](N)C(=O)O` [methionine], the “inhibition of HDH activity” value in assay [4] is reported as “Neither the AK nor the HDH activity of the extract from clone 5 was inhibited”. For the same compound, the “inhibition of AK activity” value on AKII-HDHII (AK activity) is on record as “Neither the AK nor the HDH activity of the extract from clone 5 was inhibited”.

As for `C[C@@H](O)[C@H](N)C(=O)O` [threonine], the “inhibition of HDH activity” value in assay [4] is “Neither the AK nor the HDH activity of the extract from clone 5 was inhibited”. Besides, at AKII-HDHII (AK activity), the “inhibition of AK activity” value was “Neither the AK nor the HDH activity of the extract from clone 5 was inhibited”.
